# Laboratory results published in patent US7196110B2, “N-substituted tricyclic 3-aminopyrazoles as inhibitors for the treatment of cell proliferative disorders” (Janssen Phamaceutica N.V., priority 2002, dated 2007).
# Assays:
# [1] = system: human chronic myelogenous leukemia (CML) K562 cell line; assay: Flow cytometry cell cycle phase distribution in leukemia cells; format: cell-based; conditions: K562, 24 hours
# Experimental: (§1) The effect of compounds of the invention on cell proliferation in leukemia cells, in particular, the human chronic myelogenous leukemia (CML) K562 cell line, was tested using flow cytometry and trypan blue exclusion cell counting assays.
# (§2) The human chronic myelogenous leukemia (CML) K562 cell line was obtained from American Type Culture Collection (ATCC) and cultured under specified conditions, as provided by ATCC. A Becton Dickinson FACSCalibur instrument was used for flow cytometry analyses. A CycleTEST PLUS DNA Reagent Kit (Cat. No. 340242, Becton Dickinson) was used in the study for cell staining. The standard operating procedure and a protocol for CycleTEST PLUS DNA Reagent Kit from Becton Dickinson have been followed to carry out the study. Briefly, flow cytometric analysis of the differentially stained CML K562 cell line was used to estimate the DNA content and cell cycle phase distribution of cells treated with various concentrations of the compound for 24 hours. […] Data analysis was carried out using the ModFit LT cell cycle data analysis program (Verity Software House, Topsham, Me. 04086, www.vsh.com). Cell viability test was performed using a Trypan Blue exclusion assay (Trypan Blue from Sigma, Cat No. T 0776) following procedures known to those skilled in the art.
# H460 = assay: Flow cytometry and trypan blue exclusion cell counting, H460; format: cell-based, human
# DU145 (prostate cancer) = assay: Clonogenicity assay, compound in combination with irradiation, DU145; format: cell-based, human
# Experimental: Radiotherapy is a major therapeutic modality in treating many types of cancers including human prostate and ovarian cancers. The anti-proliferative activity of compounds within the scope of the invention was tested in combination with irradiation treatment.
# Cells DU145 (prostate cancer) and MDAH2774 (ovarian cancer) were obtained from ATCC; growth media MEM medium (Mediatech, Herndon, Va.) was supplemented with 8% FBS, 5 U/ml penicillin and 50 μg/ml Streptomycin (Hyclone, Logan, Utah), 2 mM L-glutamine (Hyclone, Logan, Utah), 25 mM HEPES (Hyclone, Logan, Utah); McCoy's 5A medium (Mediatech, Herndon, Va.) was supplemented with 8% FBS, 50 U/ml penicillin and 50 μg/ml-Strep (Hyclone, Logan, Utah) and Glutamine 2 mM L-glutamine (Hyclone, Logan, Utah), ^137CS γ-source was a Gammacell 1000 Elite irradiator (MDS Nordion, Kanata, Ontario, Canada); DMSO; 1× PBS; Methanol; 0.25% Crystal Violet, and 60 mm tissue culture dishes.
# DU145 or MDAH2774 cells at desired cell number were plated in early log phase on 60 mm dishes in MEM medium supplemented with 8% FBS, Penicillin, Streptomycin, L-glutamine, or McCoys medium supplemented with 8% FBS, Penicillin, Streptomycin and Glutamine, respectively. Cells were plated in triplicate. […] The final concentrations of the compound in the cell media ranged from 1 to 100 nM. After 24 h incubation with the test compound plates were split in two groups of equal size. The plates in the first group were irradiated with 7.3 Gy (plates containing DU145 cells) or 5.4 Gy (plates containing MDAH2774 cells) using a ^137Cs γ-source (dose rate 3.32 Gy/min). The second group of plates were treated identically but not irradiated. Cells were incubated for an additional 24 hours in medium containing test compound. Then, the cells were replenished with fresh compound-free identical medium and allowed to grow for an additional 11 days. Cells were then fixed with methanol, stained with 0.25% crystal violet, and the clones containing more than 50 cells were counted.
# The activity appeared to be concentration-dependent with more dramatic effects achieved at 100 nM compound with radiation in either cell line.
# [2] = system: human chronic myelogenous leukemia (CML) K562 cell line; assay: Trypan blue exclusion cell counting assay in leukemia cells; format: cell-based
# Experimental: as §1, §2
# [3] = Rat pharmacokinetics study of pro-drugs, conversion to parent monitored by HPLC/MS/MS; format: in vivo; conditions: po, rat plasma, 10 mg/kg orally, read-out: Fast PK (0.5 h) conc. Prodrug
# Experimental: Furthermore, pro-drugs have been administered orally to rats (10 mg/kg) in pharmacokinetics studies, and the conversion of pro-drugs to the parent compound was montitored by HPLC/MS/MS analyses. Parent compound or the glucuronide conjugates of the parent compound was detected in the rat plasma from the pharmacokinetics studies (Table G).
smiles,measurement,setting,value
"COc1cc2c(cc1OC)-c1n[nH]c(Nc3cccc(F)c3)c1C2 [Compound 14, (3-Fluoro-phenyl)-(6,7-dimethoxy-2,4-dihydro-indeno[1,2-c]pyrazol-3-yl)-amine]",Percent of cells at G0–G1,[1]; compound conc. 1 nM,35%
same,Percent of cells at G2/M,[1]; compound conc. 1 nM,11%
same,Percent of cells at S phase,[1]; compound conc. 1 nM,53%
same,Percent of cells at G0–G1,[1]; compound conc. 10 nM,31%
same,Percent of cells at G2/M,[1]; compound conc. 10 nM,28%
same,Percent of cells at S phase,[1]; compound conc. 10 nM,41%
same,Percent of cells at G0–G1,[1]; compound conc. 100 nM,2%
same,Percent of cells at G2/M,[1]; compound conc. 100 nM,98%
same,Percent of cells at S phase,[1]; compound conc. 100 nM,0%
same,Percent of cells at G0–G1,[1]; compound conc. 1000 nM,3%
same,Percent of cells at G2/M,[1]; compound conc. 1000 nM,93%
same,Percent of cells at S phase,[1]; compound conc. 1000 nM,4%
same,Percent of cells at G0–G1,[1]; compound conc. 10000 nM,5%
same,Percent of cells at G2/M,[1]; compound conc. 10000 nM,90%
same,Percent of cells at S phase,[1]; compound conc. 10000 nM,5%
same,cell cycle / growth effect in H460 cells,H460,blocked growth
same,"colony formation inhibition with versus without radiation, DU145","DU145 (prostate cancer); 7.3 Gy, compound 1 to 100 nM",the inhibitory effect was greater with radiation
same,No. of DU145 Clones (average of three plates),"DU145 (prostate cancer); W/o Radiation, 200 cells initially plated, compound 1 nM",118
same,No. of DU145 Clones (average of three plates),"DU145 (prostate cancer); W/o Radiation, 200 cells initially plated, compound 3 nM",108
same,No. of DU145 Clones (average of three plates),"DU145 (prostate cancer); W/o Radiation, 200 cells initially plated, compound 10 nM",111
same,No. of DU145 Clones (average of three plates),"DU145 (prostate cancer); W/o Radiation, 200 cells initially plated, compound 30 nM",100
same,No. of DU145 Clones (average of three plates),"DU145 (prostate cancer); W/o Radiation, 200 cells initially plated, compound 100 nM",22
same,"concentration from which marked inhibitory activity against colony formation was shown, DU145",DU145 (prostate cancer); in the presence or absence of radiation (7.3 Gy),≥ 30 nM
same,No. of DU145 Clones (average of three plates),"DU145 (prostate cancer); w/Radiation (7.3 Gy), 1200 cells initially plated, compound 1 nM",117
same,No. of DU145 Clones (average of three plates),"DU145 (prostate cancer); w/Radiation (7.3 Gy), 1200 cells initially plated, compound 3 nM",100
same,No. of DU145 Clones (average of three plates),"DU145 (prostate cancer); w/Radiation (7.3 Gy), 1200 cells initially plated, compound 10 nM",126
same,No. of DU145 Clones (average of three plates),"DU145 (prostate cancer); w/Radiation (7.3 Gy), 1200 cells initially plated, compound 30 nM",57
same,No. of DU145 Clones (average of three plates),"DU145 (prostate cancer); w/Radiation (7.3 Gy), 1200 cells initially plated, compound 100 nM",5
same,effect on cell proliferation in K562 cells,[2]; 24 hours treatment,concentration-dependent decrease of cell proliferation
same,IC50,"[2]; Homo sapiens, K562, 24 hours treatment, read-out: IC50 on K562 cell proliferation",~10 nM
"COc1cc2c(cc1OC)-c1c(c(Nc3cccc(F)c3)nn1C(=O)CO)C2 [Compound 432, 1-[3-(3-Fluoro-phenylamino)-6,7-dimethoxy-4H-indeno[1,2-c]pyrazol-1-yl]-2-hydroxy-ethanone]",concentration at 0.5 h,[3],80 nM
